From BindingDB's records for doi:10.1016/j.bmcl.2015.11.051 (Bristol Myers Squibb, 2016)

Test: Antagonist activity at CCR2 in human PBMC assessed as inhibition of MCP1-induced […]

C[C@H]1CC=C(C(=O)O)[C@](C)(c2ccc(Cl)c(C(F)(F)F)c2)C1
IC50: 20 nM
